Source: patent publication US8580794B2 (AbbVie Inc., priority 2009, dated 2013)

Each compound was assayed against GST-Bc1-2 (Homo sapiens, UniProt P10415) (assay: Time Resolved-Fluorescence Resonance Energy Transfer (TR-FRET) Bcl-2 binding assay with F-Bak peptide probe). Details: GST-Bcl-2 1 nM, F-Bak probe 100 nM, Tb-anti-GST 1 nM; '<' = below limit of detection; read-out: TR-FRET Bcl-2 Binding Ki.
Sequence of GST-Bc1-2 (P10415 whole entry): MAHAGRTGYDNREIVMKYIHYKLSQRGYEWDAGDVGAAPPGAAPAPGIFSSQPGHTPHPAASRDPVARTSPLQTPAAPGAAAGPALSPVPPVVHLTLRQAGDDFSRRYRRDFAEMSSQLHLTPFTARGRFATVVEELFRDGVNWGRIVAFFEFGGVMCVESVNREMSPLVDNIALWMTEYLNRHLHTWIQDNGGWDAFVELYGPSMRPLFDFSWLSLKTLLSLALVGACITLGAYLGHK

| Structure (SMILES) | Ki [nM] |
| --- | --- |
| CC1(C)CCC(CN2CCN(c3ccc(C(=O)NS(=O)(=O)c4ccc(NCc5cccc(OC(F)F)c5)c([N+](=O)[O-])c4)c(Oc4cnc5[nH]ccc5c4)c3)CC2)=C(c2ccc(Cl)cc2)C1 [Example 187, 4-(4-{[2-(4-chlorophenyl)-4,4-dimethylcyclohex-1-en-1-yl]methyl}piperazin-1-yl)-N-[(4-{[3-(difluoromethoxy)benzyl]amino}-3-nitrophenyl)sulfonyl]-2-(1H-pyrrolo[2,3-b]pyridin-5-yloxy)benzamide] | 0.08 |
| CC1(C)CCC(CN2CCN(c3ccc(C(=O)NS(=O)(=O)c4ccc(NC[C@H]5CC[C@H](C#N)CC5)c([N+](=O)[O-])c4)c(Oc4cnc5[nH]ccc5c4)c3)CC2)=C(c2ccc(Cl)cc2)C1 [Example 276, 4-(4-{[2-(4-chlorophenyl)-4,4-dimethylcyclohex-1-en-1-yl]methyl}piperazin-1-yl)-N-[(4-{[(trans-4-cyanocyclohexyl)methyl]amino}-3-nitrophenyl)sulfonyl]-2-(1H-pyrrolo[2,3-b]pyridin-5-yloxy)benzamide] | < 0.01 |
| CN1CC(Nc2ccc(S(=O)(=O)NC(=O)c3ccc(N4CCN(CC5=C(c6ccc(Cl)cc6)CC(C)(C)CC5)CC4)cc3Oc3cnc4[nH]ccc4c3)cc2[N+](=O)[O-])CC1=O (stereo not drawn) [Example 202, 4-(4-{[2-(4-chlorophenyl)-4,4-dimethylcyclohex-1-en-1-yl]methyl}piperazin-1-yl)-N-({4-[(1-methyl-5-oxopyrrolidin-3-yl)amino]-3-nitrophenyl}sulfonyl)-2-(1H-pyrrolo[2,3-b]pyridin-5-yloxy)benzamide] | < 0.01 |
| CC1(C)CCC(CN2CCN(c3ccc(C(=O)NS(=O)(=O)c4ccc(NCC5CCN(C6CC6)CC5)c([N+](=O)[O-])c4)c(Oc4cnc5[nH]ccc5c4)c3)CC2)=C(c2ccc(Cl)cc2)C1 [Example 164, 4-(4-{[2-(4-chlorophenyl)-4,4-dimethylcyclohex-1-en-1-yl]methyl}piperazin-1-yl)-N-[(4-{[(1-cyclopropylpiperidin-4-yl)methyl]amino}-3-nitrophenyl)sulfonyl]-2-(1H-pyrrolo[2,3-b]pyridin-5-yloxy)benzamide] | < 0.01 |
| CC1(C)CCC(CN2CCN(c3ccc(C(=O)NS(=O)(=O)c4ccc(NCC5CN(C(CF)CF)CCO5)c([N+](=O)[O-])c4)c(Oc4cnc5[nH]ccc5c4)c3)CC2)=C(c2ccc(Cl)cc2)C1 (stereo not drawn) [Example 252, 4-(4-{[2-(4-chlorophenyl)-4,4-dimethylcyclohex-1-en-1-yl]methyl}piperazin-1-yl)-N-{[4-({[4-(1,3-difluoropropan-2-yl)morpholin-2-yl]methyl}amino)-3-nitrophenyl]sulfonyl}-2-(1H-pyrrolo[2,3-b]pyridin-5-yloxy)benzamide] | < 0.01 |
| CC1(C)CCC(CN2CCN(c3ccc(C(=O)NS(=O)(=O)c4ccc(NC[C@@H]5CC[C@@H](O)C5)c([N+](=O)[O-])c4)c(Oc4cnc5[nH]ccc5c4)c3)CC2)=C(c2ccc(Cl)cc2)C1 [Example 156, 4-(4-{[2-(4-chlorophenyl)-4,4-dimethylcyclohex-1-en-1-yl]methyl}piperazin-1-yl)-N-{[4-({[(1R,3R)-3-hydroxycyclopentyl]methyl}amino)-3-nitrophenyl]sulfonyl}-2-(1H-pyrrolo[2,3-b]pyridin-5-yloxy)benzamide] | < 0.01 |
| CC1(C)CCC(CC2CCN(c3ccc(C(=O)NS(=O)(=O)c4ccc(NCC5CCOCC5)c([N+](=O)[O-])c4)c(Oc4cnc5[nH]ccc5c4)c3)CC2)C(c2ccc(Cl)cc2)C1 (stereo not drawn) [Example 296, 4-(4-{[2-(4-chlorophenyl)-4,4-dimethylcyclohexyl]methyl}piperidin-1-yl)-N-({3-nitro-4-[(tetrahydro-2H-pyran-4-ylmethyl)amino]phenyl}sulfonyl)-2-(1H-pyrrolo[2,3-b]pyridin-5-yloxy)benzamide] | 0.512 |
| CC(C)N1CCC2(CCC(c3ccc(Cl)cc3)=C(CN3CCN(c4ccc(C(=O)NS(=O)(=O)c5ccc(NCC6CCOCC6)c([N+](=O)[O-])c5)c(Oc5cnc6[nH]ccc6c5)c4)CC3)C2)CC1 [Example 266, 4-(4-{[9-(4-chlorophenyl)-3-isopropyl-3-azaspiro[5.5]undec-8-en-8-yl]methyl}piperazin-1-yl)-N-({3-nitro-4-[(tetrahydro-2H-pyran-4-ylmethyl)amino]phenyl}sulfonyl)-2-(1H-pyrrolo[2,3-b]pyridin-5-yloxy)benzamide] | < 0.01 |
| CC1(C)CCC(CN2CCN(c3ccc(C(=O)NS(=O)(=O)c4cnc(OCC5CCN(CC#N)CC5)c(Cl)c4)c(Oc4cnc5[nH]ccc5c4)c3)CC2)=C(c2ccc(Cl)cc2)C1 [Example 253, N-[(5-chloro-6-{[1-(cyanomethyl)piperidin-4-yl]methoxy}pyridin-3-yl)sulfonyl]-4-(4-{[2-(4-chlorophenyl)-4,4-dimethylcyclohex-1-en-1-yl]methyl}piperazin-1-yl)-2-(1H-pyrrolo[2,3-b]pyridin-5-yloxy)benzamide] | 0.052 |
| CC1(C)CCC(CN2CCN(c3ccc(C(=O)NS(=O)(=O)c4cnc(NCC5CCOCC5)c(C#N)c4)c(Oc4cnc5[nH]ccc5c4)c3)CC2)=C(c2ccc(Cl)cc2)C1 [Example 106, 4-(4-{[2-(4-chlorophenyl)-4,4-dimethylcyclohex-1-en-1-yl]methyl}piperazin-1-yl)-N-({5-cyano-6-[(tetrahydro-2H-pyran-4-ylmethyl)amino]pyridin-3-yl}sulfonyl)-2-(1H-pyrrolo[2,3-b]pyridin-5-yloxy)benzamide] | 0.895 |
| CC1(C)CCC(CN2CCN(c3ccc(C(=O)NS(=O)(=O)c4ccc(NC[C@@H]5CC[C@H](O)C5)c([N+](=O)[O-])c4)c(Oc4cnc5[nH]ccc5c4)c3)CC2)=C(c2ccc(Cl)cc2)C1 [Example 159, 4-(4-{[2-(4-chlorophenyl)-4,4-dimethylcyclohex-1-en-1-yl]methyl}piperazin-1-yl)-N-{[4-({[(1R,3S)-3-hydroxycyclopentyl]methyl}amino)-3-nitrophenyl]sulfonyl}-2-(1H-pyrrolo[2,3-b]pyridin-5-yloxy)benzamide] | < 0.01 |
| CC1(C)CCC(CN2CCN(c3ccc(C(=O)NS(=O)(=O)c4ccc(NCc5ccc(OCCN6CCOCC6)cc5)c([N+](=O)[O-])c4)c(Oc4cnc5[nH]ccc5c4)c3)CC2)=C(c2ccc(Cl)cc2)C1 [Example 198, 4-(4-{[2-(4-chlorophenyl)-4,4-dimethylcyclohex-1-en-1-yl]methyl}piperazin-1-yl)-N-[(4-{[4-(2-morpholin-4-ylethoxy)benzyl]amino}-3-nitrophenyl)sulfonyl]-2-(1H-pyrrolo[2,3-b]pyridin-5-yloxy)benzamide] | < 0.01 |
| O=C(NS(=O)(=O)c1ccc(OCC2(F)CCOCC2)c(Cl)c1)c1ccc(N2CCN(CC3=C(c4ccc(Cl)cc4)CCC4(CCN(C5COC5)CC4)C3)CC2)cc1Oc1cnc2[nH]ccc2c1 [Example 325, N-({3-chloro-4-[(4-fluorotetrahydro-2H-pyran-4-yl)methoxy]phenyl}sulfonyl)-4-(4-{[9-(4-chlorophenyl)-3-(oxetan-3-yl)-3-azaspiro[5.5]undec-8-en-8-yl]methyl}piperazin-1-yl)-2-(1H-pyrrolo[2,3-b]pyridin-5-yloxy)benzamide] | < 0.01 |
| CC1(C)CCC(CN2CCN(c3ccc(C(=O)NS(=O)(=O)c4cnc(NCC5CCOCC5)c([N+](=O)[O-])c4)c(Oc4cnc5[nH]ccc5c4)c3)CC2)=C(c2ccc(Cl)cc2)C1 [Example 364, 4-(4-{[2-(4-chlorophenyl)-4,4-dimethylcyclohex-1-en-1-yl]methyl}piperazin-1-yl)-N-({5-nitro-6-[(tetrahydro-2H-pyran-4-ylmethyl)amino]pyridin-3-yl}sulfonyl)-2-(1H-pyrrolo[2,3-b]pyridin-5-yloxy)benzamide] | < 0.01 |
| CC1(C)CCC(CN2CCN(c3ccc(C(=O)NS(=O)(=O)c4ccc(NCC5CCN(C(CF)CF)CC5)c([N+](=O)[O-])c4)c(Oc4cnc5[nH]ccc5c4)c3)CC2)=C(c2ccc(Cl)cc2)C1 [Example 172, 4-(4-{[2-(4-chlorophenyl)-4,4-dimethylcyclohex-1-en-1-yl]methyl}piperazin-1-yl)-N-({4-[({1-[2-fluoro-1-(fluoromethyl)ethyl]piperidin-4-yl}methyl)amino]-3-nitrophenyl}sulfonyl)-2-(1H-pyrrolo[2,3-b]pyridin-5-yloxy)benzamide] | < 0.01 |
| CN1CCC(COc2ncc(S(=O)(=O)NC(=O)c3ccc(N4CCN(CC5=C(c6ccc(Cl)cc6)CC(C)(C)CC5)CC4)cc3Oc3cnc4[nH]ccc4c3)cc2Br)CC1 [Example 47, N-({5-bromo-6-[(1-methylpiperidin-4-yl)methoxy]pyridin-3-yl}sulfonyl)-4-(4-{[2-(4-chlorophenyl)-4,4-dimethylcyclohex-1-en-1-yl]methyl}piperazin-1-yl)-2-(1H-pyrrolo[2,3-b]pyridin-5-yloxy)benzamide] | < 0.01 |
| CC1(C)CCC(CN2CCN(c3ccc(C(=O)NS(=O)(=O)c4cnc(OCC5(F)CCN(CC#N)CC5)c(Cl)c4)c(Oc4cnc5[nH]ccc5c4)c3)CC2)=C(c2ccc(Cl)cc2)C1 [Example 257, N-[(5-chloro-6-{[1-(cyanomethyl)-4-fluoropiperidin-4-yl]methoxy}pyridin-3-yl)sulfonyl]-4-(4-{[2-(4-chlorophenyl)-4,4-dimethylcyclohex-1-en-1-yl]methyl}piperazin-1-yl)-2-(1H-pyrrolo[2,3-b]pyridin-5-yloxy)benzamide] | 0.052 |

Same assay, conditions: TR-FRET Bcl-2 Binding Ki

| Structure (SMILES) | Ki [nM] |
| --- | --- |
| CC1(C)CCC(CN2CCN(c3ccc(C(=O)NS(=O)(=O)c4ccc(NC(=O)N5CCOCC5)c([N+](=O)[O-])c4)c(Oc4cnc5[nH]ccc5c4)c3)CC2)=C(c2ccc(Cl)cc2)C1 [Example 373, N-(4-{[4-(4-{[2-(4-chlorophenyl)-4,4-dimethylcyclohex-1-en-1-yl]methyl}piperazin-1-yl)-2-(1H-pyrrolo[2,3-b]pyridin-5-yloxy)benzoyl]sulfamoyl}-2-nitrophenyl)morpholine-4-carboxamide] | < 0.001 |
